Paper PMC9814205, “Targeting undruggable carbohydrate recognition sites through focused fragment library design” (Communications Chemistry, 2022)
“Also recorded” adds a separate entry of the source.

Columns and labels:
5FW LecA (PA-IL) = molecular target: T1, 5FW LecA (PA-IL) (Pseudomonas aeruginosa, UniProt Q05097); experiment: PrOF NMR with 5-fluorotryptophan-labeled LecA; format: binding
T1 construct: made in house
Method: PrOF NMR was performed as reported previously. Briefly, 150 µM 5FW LecA was recorded alone and in the presence of DMSO or 2–4 mM compounds in TBS/Ca^2+ buffer. The difference in chemical shift perturbations of W42 in 5FW LecA free vs bound forms was followed to determine Kd values of compounds. The Kd values were calculated according to the one-site-binding model in Origin(Pro) 2020b (OriginLab Corp., USA) from two or three independent titrations. Ligand efficiency values were calculated according to Eq. (1) for a temperature of 310 K.

DC-SIGN CRD (CD209) = molecular target: T2, DC-SIGN CRD (CD209) (Homo sapiens, UniProt Q9NNX6); experiment: 1H-15N HSQC NMR with 15N DC-SIGN CRD; format: binding
T2 construct: the carbohydrate recognition domain (CRD) of DC-SIGN in ^1H-^15N HSQC/TROSY NMR experiments; made in house
T2 sequence (Q9NNX6 263-378 limits assumed): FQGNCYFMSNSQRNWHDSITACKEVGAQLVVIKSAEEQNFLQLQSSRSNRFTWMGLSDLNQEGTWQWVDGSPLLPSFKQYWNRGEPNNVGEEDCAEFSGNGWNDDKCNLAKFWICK
Method: (§1) The ^1H-^15N TROSY pulse sequence trosyf3gpphsi19 with 128 increments and 32 scans per increment was applied for 0.15 mM ^15N LecA and 0.07 mM LecB in HBS/Ca^2+ buffer (20 mM HEPES pH 7.4, 150 mM NaCl, 10 mM CaCl2, 10% D2O and 100 µM sodium trimethylsilylpropanesulfonate (DSS) as internal reference) at 310 K. The ^1H-^15N HSQC pulse sequence hsqcf3gpph19 with 128 increments and 8 scans per increment was applied for 0.1 mM ^15N DC-SIGN and Langerin CRD in HBS/Ca^2+ buffer at 298 K. For screening of 650 non-fluorinated fragments of the general library against ^15N LecA, a mix of 10 compounds at 1 mM each was combined with 0.15 mM ^15N LecA in HBS/Ca^2+ buffer (20 mM HEPES pH 7.4, 150 mM NaCl, 10 mM CaCl2, 10% D2O and 100 µM sodium trimethylsilylpropanesulfonate (DSS) as internal reference, whereas the fragments with the MBP scaffolds were validated separately at 1 mM. Similarly, 9 nonfluorinated fragments from the MBP library were screened against ^15N-labeled DC-SIGN, LecA and LecB. To validate the fragment binding to proteins, we recorded ^1H-^15N HSQC and TROSY NMR of proteins in the presence of DMSO as negative control and 2 mM fragments in HBS/Ca^2+ buffer. Natural ligands were used as positive controls at 1 mM MeGal, MeFuc and 30 mM D-mannose to LecA/LecB and DC-SIGN CRD/Langerin CRD, respectively. Titration experiments with ^15N-labeled DC-SIGN CRD or LecB were recorded in HBS/Ca^2+ buffer with 30 mM CaCl2 and 0.25 to 4–8 mM malonic acid derivatives. The Kd values were calculated according to the one-site-binding model in Origin(Pro) 2020b (OriginLab Corp., USA). Ligand efficiency calculations were done according to Eq. (1) for a temperature of 298 K and 310 K for DC-SIGN CRD and LecB, respectively.1 LE=RTlnKd/HA, with the temperature T [K], the gas constant R [kcal mol^−1 K^−1], and the number of non-hydrogen atoms HA[56].
All data were processed with NMRpipe[65] and analyzed with CcpNmr analysis. For data analysis, the protein fingerprint of ^15N DC-SIGN (Table S7) or Langerin CRD was assigned as reported previously. The ^1H-^15N TROSY resonances of ^15N LecA and ^15N LecB were indexed with IDs due to a lack of protein backbone resonance assignment (Tables S8-S9). Next, resonance IDs from protein spectra were transferred to the spectra obtained in the presence of compounds in order to compare the changes in chemical shift perturbations for the fast exchange peaks. The changes in chemical shift perturbations (CSPs) were calculated according to Eq. (2):2 △δ=1/2△δH2+α△δN^2 in which δ is the difference in chemical shift (in ppm) and α is an empirical weighting factor of 0.14 for all amino acid backbone resonances. The threshold value was set based on three independent measurements of reference spectra to 0.01 ppm for LecA, LecB, DC-SIGN CRD and Langerin CRD.

LecB (PA-IIL) = molecular target: T3, LecB (PA-IIL) (Pseudomonas aeruginosa, UniProt Q9HYN5); experiment: 1H-15N TROSY NMR with 15N LecB; format: binding
T3 construct: made in house
Method: as §1, with “Ligand efficiency calculations were done according to Eq. (1) for a temperature of 298 K and 310 K for DC-SIGN CRD and LecB, respectively.1 LE=RTlnKd/HA, with the temperature T [K], the gas constant R [kcal mol^−1 K^−1], and the number of non-hydrogen atoms HA[56].” left out
All data were processed with NMRpipe[65] and analyzed with CcpNmr analysis. […] The changes in chemical shift perturbations (CSPs) were calculated according to Eq. (2):2 △δ=1/2△δH2+α△δN^2 in which δ is the difference in chemical shift (in ppm) and α is an empirical weighting factor of 0.14 for all amino acid backbone resonances. […]

DC-SIGN^+ Raji cells = molecular target: T4, DC-SIGN^+ Raji cells (Homo sapiens, UniProt Q9NNX6); experiment: cellFy cell-based assay, FITC-dextran binding by flow cytometry; conditions: D-mannose positive control
T4 construct: expressed in transfected cells; host or cells: Raji cells (DC-SIGN+)
T4 sequence (Q9NNX6 1-404): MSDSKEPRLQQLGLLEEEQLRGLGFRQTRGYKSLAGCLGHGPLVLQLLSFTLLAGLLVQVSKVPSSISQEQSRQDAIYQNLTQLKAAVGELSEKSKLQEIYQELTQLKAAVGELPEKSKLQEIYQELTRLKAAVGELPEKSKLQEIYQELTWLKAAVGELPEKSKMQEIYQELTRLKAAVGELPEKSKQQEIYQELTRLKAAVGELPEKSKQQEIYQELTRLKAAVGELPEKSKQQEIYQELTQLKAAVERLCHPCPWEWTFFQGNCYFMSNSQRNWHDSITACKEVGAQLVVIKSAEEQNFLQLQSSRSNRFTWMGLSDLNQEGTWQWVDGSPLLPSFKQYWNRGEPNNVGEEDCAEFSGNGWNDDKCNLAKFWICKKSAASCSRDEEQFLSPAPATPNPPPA
Method: (§2) The cellFy experiments using Langerin^+ and DC-SIGN^+ Raji cell lines were performed as described before. Briefly, 50k cells were plated in a 96-well plate (clear, round bottom; Greiner Bio-One and mixed with varying concentrations of malonates 58, D-mannose and 0.025 mg mL^−1 FITC-conjugated dextran (500 kDa, Sigma Aldrich) in a final volume of 50 µL following incubation for 30 min on ice. After centrifugation at 500 g for 3 min at 4 °C, the supernatant was discarded. After washing cells were treated with 50 µL 4 % paraformaldehyde (Roti-Histofix, Carl Roth) for 20 min on ice and resuspended in 100 µL fresh culture medium. The fluorescence of cells was measured by flow cytometry (MACSQuant Analyzer 16). Data was analyzed in FlowJo.

Raji cells = experiment: Cytotoxicity observed in cellFy; format: cell-based; conditions: at low concentrations; up to 10 mM
Method: as §2

LecA [1] = molecular target: T5, LecA (Pseudomonas aeruginosa, UniProt Q05097); conditions: carbohydrate ligand; cited from earlier work
T5 construct: made in house

Langerin and DC-SIGN = conditions: cited from earlier work
DC-SIGN = conditions: stated in SI text, method and reference not given; cited from earlier work
LecA [2] = molecular target: T5, LecA; conditions: positive control in FP assay, unit inferred; cited from earlier work

T1 sequence (Q05097 2-122): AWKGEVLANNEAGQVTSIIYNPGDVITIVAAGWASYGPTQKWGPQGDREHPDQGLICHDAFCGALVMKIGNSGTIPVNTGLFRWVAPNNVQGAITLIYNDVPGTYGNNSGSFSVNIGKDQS
T5 sequence (Q05097 whole entry): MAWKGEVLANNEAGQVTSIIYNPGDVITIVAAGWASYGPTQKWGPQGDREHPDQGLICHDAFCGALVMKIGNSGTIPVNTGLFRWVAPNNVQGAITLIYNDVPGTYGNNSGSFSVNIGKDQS
T3 sequence (Q9HYN5 entry or part of it): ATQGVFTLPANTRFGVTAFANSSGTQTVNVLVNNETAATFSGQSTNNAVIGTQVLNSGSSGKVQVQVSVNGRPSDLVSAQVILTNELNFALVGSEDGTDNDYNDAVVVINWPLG

O=C(O)C(C(=O)O)C1CCC(F)(F)C1 (centres unmarked) [compound 58]
binding to 5FW LecA (perturbation of W42) in PrOF NMR (5FW LecA (PA-IL); 2 mM compound): perturbed W42 | W2 [ppm] (5FW LecA (PA-IL); 19F resonance of 0.15 mM 5FW LecA with 2 mM compound, DMSO 121.43): 121.47 ppm | W33 [ppm] (5FW LecA (PA-IL); 19F resonance of 0.15 mM 5FW LecA with 2 mM compound, DMSO 121.67): 121.77 ppm | W84 [ppm] (5FW LecA (PA-IL); 19F resonance of 0.15 mM 5FW LecA with 2 mM compound, DMSO 123.50): 123.53 ppm | Kd (DC-SIGN CRD (CD209); 15N DC-SIGN CRD, titration, one-site binding model, 30 mM CaCl2): 1200 ± 500 µM | LE (DC-SIGN CRD (CD209); ligand efficiency calculated from Kd for DC-SIGN CRD, 298 K): 0.28 kcal mol^−1 HA^−1 | Kd (LecB (PA-IIL)): 1200 ± 400 µM | LE (LecB (PA-IIL); ligand efficiency calculated from Kd for LecB, 310 K): 0.29 kcal mol^−1 HA^−1 | inhibition of FITC-dextran binding / binding to DC-SIGN^+ cells (DC-SIGN^+ Raji cells): inhibited FITC-dextran binding to DC-SIGN similarly to D-mannose; also recorded: specifically bound to DC-SIGN^+ cells | cytotoxicity (Raji cells): negligible cytotoxicity; also recorded: low cytotoxicity

OC[C@H]1O[C@H](O)[C@H](O)[C@@H](O)[C@H]1O [α-D-galactose]
Kd (LecA [1]): 50 µM

OC[C@H]1OC(O)[C@@H](O)[C@@H](O)[C@@H]1O (stereo partly drawn) [D-mannose]
Kd (Langerin and DC-SIGN): 3500 to 6100 µM | Kd (DC-SIGN): 3000 µM

CC(=O)N[C@H]1C(O)O[C@H](CO)[C@H](O)[C@@H]1O (some centres unmarked) [GalNAc]
IC50 (LecA [2]): 1230 ± 200 µM
